# Laboratory results published in patent publication US4962113A, “Pyridinium derivatives, their production and use” (Takeda Chemical Industries, Ltd, priority 1987, dated 1990).
# Like-named read-outs stand apart in the source and are kept apart here.
# How the values were obtained:
# [1] = system: platelet aggregation (PAF); experiment: Inhibitory action on PAF-induced rabbit platelet aggregation; type: cell-based; settings: Oryctolagus cuniculus, read-out: inhibitory percentage (platelet aggregation); for inhibition at 3 µM: 3 × 10^-6 M; for inhibition at 0.3 µM: 3 × 10^-7 M; for inhibition at 0.03 µM: 3 × 10^-8 M
# Experimental: Blood was collected directly from the hearts of male rabbits using a syringe containing, as an anticoagulant, 3.15% citric acid (one part to 9 parts of blood). The blood was subjected to centrifuge at 800 rpm for ten minutes at room temperature to obtain platelet rich plasma (PRP). The remaining blood was further subjected to centrifuge at 3000 rpm for ten minnutes to separate platelet poor plasma (PPP) as the supernatant. PRP was diluted with PPP, and the number of platelets was adjusted to about 500,000/ μl. This PRP(250 μl) was stirred for two minutes at 37° C., and there was added a test sample, and the mixture was stirred for further two minutes, followed by addition of PAF of a given concentration. Platelet aggregation was examined by means of a platelet-agglutometer (manufactured by Rika Denki). Platelet aggregation preventing action of the test sample was determined based on the maximum percent light transmission (maximum percent. agglutination).
# PAF-induced hypotension = experiment: Inhibitory action on PAF-induced hypotension in rats; type: in vivo, rat (Sprague-Dawley); settings: Rattus norvegicus, read-out: Inhibitory Rate (Lowering of Blood Pressure); for inhibition in vivo at 0.01 mg/kg / inhibition in vivo at 0.1 mg/kg / inhibition in vivo at 0.03 mg/kg: iv; for inhibition in vivo at 1 mg/kg / inhibition in vivo at 3 mg/kg / inhibition in vivo at 10 mg/kg / inhibition in vivo at 30 mg/kg: oral
# Experimental: Sprague-Dawley male rats, each weighing about 250 g, were subjected to the experiment. The rats were cannulated on the side of femoral artery for measuring the blood pressure, and on the side of femoral vein for administering the drug. The blood pressure was measured through a pressure transducer and recorded. First, PAF (1 μg/kg) was administered intravenously (i.v.) to examine the extent of lowering of blood pressure. Then, the test samples were administered intravenously or orally. […]
# The inhibitory action on PAF-induced hypotension (% inhibition) is indicated as the ratio of blood pressure-lowering degree (Δ mmHg) induced by PAF after administration of test samples relative to blood pressure-lowering degree (Δ mmHg) induced by PAF before administration of test samples.
# Acute Toxicity Test = type: in vivo; settings: oral, 1000 mg/kg, until after one week
# Experimental: Male Jcl-ICR mice (5 wk) were used in groups of five individuals. The animals of the respective groups were orally administered with the compounds (227), (236) and (303) respectively produced in Production Examples 87, 90 and 109 at the dose of 1000 mg/kg.
structure (smiles),measurement,setting,value
"CCC[n+]1cc(Br)cc(C(=O)N(CCC(=O)NCCOC(=O)N2CCc3ccccc3C2)c2ccccc2)c1 [Production Example 87, 5-Bromo-3-[N-[2-[[2-(1,2,3,4-tetrahydroisoquinolyl)carbonyloxy]ethyl]carbamoyl]ethyl-N-phenyl]carbamoyl-1-propylpyridinium chloride]",inhibition at 3 µM,[1],100%
same,inhibition at 0.3 µM,[1],100%
same,inhibition at 0.03 µM,[1],49%
same,inhibition in vivo at 0.01 mg/kg,PAF-induced hypotension; 1 hr.,64%
same,inhibition in vivo at 0.01 mg/kg,PAF-induced hypotension; 2 hr.,51%
same,inhibition in vivo at 0.01 mg/kg,PAF-induced hypotension; 4 hr.,41%
same,inhibition in vivo at 0.01 mg/kg,PAF-induced hypotension; 6 hr.,30%
same,inhibition in vivo at 0.01 mg/kg,PAF-induced hypotension; 8 hr.,23%
same,inhibition in vivo at 0.01 mg/kg,"PAF-induced hypotension; 5 min, i.v., 5 min.",91%
same,inhibition in vivo at 1 mg/kg,PAF-induced hypotension; 1 hr.,57%
same,inhibition in vivo at 1 mg/kg,PAF-induced hypotension; 2 hr.,76%
same,inhibition in vivo at 1 mg/kg,PAF-induced hypotension; 4 hr.,86%
same,inhibition in vivo at 1 mg/kg,PAF-induced hypotension; 6 hr.,74%
same,inhibition in vivo at 1 mg/kg,PAF-induced hypotension; 8 hr.,63%
same,inhibition in vivo at 3 mg/kg,PAF-induced hypotension; 1 hr.,100%
same,inhibition in vivo at 3 mg/kg,PAF-induced hypotension; 2 hr.,97%
same,inhibition in vivo at 3 mg/kg,PAF-induced hypotension; 4 hr.,99%
same,inhibition in vivo at 3 mg/kg,PAF-induced hypotension; 6 hr.,93%
same,inhibition in vivo at 3 mg/kg,PAF-induced hypotension; 8 hr.,88%
same,death of mice,Acute Toxicity Test,No death of mice was observed
"CCC[n+]1cc(Br)cc(C(=O)N(CCC(=O)NCCNS(=O)(=O)c2cccc3ccccc23)c2ccccc2)c1 [Production Example 109, 5-Bromo-3-[N-[2-[2-(1-naphthylsulfonamide)ethyl]carbamoyl]-ethyl-N-phenyl]carbamoyl-1-propylpyridinium chloride]",inhibition at 3 µM,[1],100%
same,inhibition at 0.3 µM,[1],100%
same,inhibition at 0.03 µM,[1],26%
same,inhibition in vivo at 0.1 mg/kg,PAF-induced hypotension; 1 hr.,100%
same,inhibition in vivo at 0.1 mg/kg,PAF-induced hypotension; 2 hr.,97%
same,inhibition in vivo at 0.1 mg/kg,PAF-induced hypotension; 4 hr.,71%
same,inhibition in vivo at 0.1 mg/kg,PAF-induced hypotension; 6 hr.,50%
same,inhibition in vivo at 0.1 mg/kg,PAF-induced hypotension; 8 hr.,46%
same,inhibition in vivo at 0.1 mg/kg,"PAF-induced hypotension; 5 min, i.v., 5 min.",100%
same,inhibition in vivo at 1 mg/kg,PAF-induced hypotension; 1 hr.,56%
same,inhibition in vivo at 1 mg/kg,PAF-induced hypotension; 2 hr.,65%
same,inhibition in vivo at 1 mg/kg,PAF-induced hypotension; 4 hr.,64%
same,inhibition in vivo at 1 mg/kg,PAF-induced hypotension; 6 hr.,54%
same,inhibition in vivo at 1 mg/kg,PAF-induced hypotension; 8 hr.,48%
same,inhibition in vivo at 3 mg/kg,PAF-induced hypotension; 1 hr.,95%
same,inhibition in vivo at 3 mg/kg,PAF-induced hypotension; 2 hr.,97%
same,inhibition in vivo at 3 mg/kg,PAF-induced hypotension; 4 hr.,97%
same,inhibition in vivo at 3 mg/kg,PAF-induced hypotension; 6 hr.,92%
same,inhibition in vivo at 3 mg/kg,PAF-induced hypotension; 8 hr.,80%
same,death of mice,Acute Toxicity Test,No death of mice was observed
"CCC[n+]1cc(Br)cc(C(=O)N(CCOC(=O)NCCOc2cccc3ccccc23)c2ccccc2)c1 [Production Example 7, 5-bromo-3-[N-[2-[2-(1-naphthyloxy)ethyl]carbamoyloxy]ethyl-N-phenyl]carbamoyl-1-propylpyridinium iodide]",inhibition at 3 µM,[1],100%
same,inhibition at 0.3 µM,[1],100%
same,inhibition at 0.03 µM,[1],18%
same,inhibition in vivo at 0.01 mg/kg,PAF-induced hypotension; 1 hr.,59%
same,inhibition in vivo at 0.01 mg/kg,PAF-induced hypotension; 2 hr.,48%
same,inhibition in vivo at 0.01 mg/kg,PAF-induced hypotension; 4 hr.,45%
same,inhibition in vivo at 0.01 mg/kg,PAF-induced hypotension; 6 hr.,40%
same,inhibition in vivo at 0.01 mg/kg,PAF-induced hypotension; 8 hr.,35%
same,inhibition in vivo at 0.03 mg/kg,PAF-induced hypotension; 1 hr.,84%
same,inhibition in vivo at 0.03 mg/kg,PAF-induced hypotension; 2 hr.,81%
same,inhibition in vivo at 0.03 mg/kg,PAF-induced hypotension; 4 hr.,68%
same,inhibition in vivo at 0.03 mg/kg,PAF-induced hypotension; 6 hr.,57%
same,inhibition in vivo at 0.03 mg/kg,PAF-induced hypotension; 8 hr.,51%
same,inhibition in vivo at 0.1 mg/kg,PAF-induced hypotension; 1 hr.,100%
same,inhibition in vivo at 0.1 mg/kg,PAF-induced hypotension; 2 hr.,91%
same,inhibition in vivo at 0.1 mg/kg,PAF-induced hypotension; 4 hr.,76%
same,inhibition in vivo at 0.1 mg/kg,PAF-induced hypotension; 6 hr.,63%
same,inhibition in vivo at 0.1 mg/kg,PAF-induced hypotension; 8 hr.,58%
same,inhibition in vivo at 0.01 mg/kg,"PAF-induced hypotension; 5 min, i.v., 5 min.",76%
same,inhibition in vivo at 0.03 mg/kg,"PAF-induced hypotension; 5 min, i.v., 5 min.",100%
same,inhibition in vivo at 0.1 mg/kg,"PAF-induced hypotension; 5 min, i.v., 5 min.",100%
same,inhibition in vivo at 3 mg/kg,PAF-induced hypotension; 1 hr.,36%
same,inhibition in vivo at 3 mg/kg,PAF-induced hypotension; 2 hr.,59%
same,inhibition in vivo at 3 mg/kg,PAF-induced hypotension; 4 hr.,63%
same,inhibition in vivo at 3 mg/kg,PAF-induced hypotension; 6 hr.,59%
same,inhibition in vivo at 3 mg/kg,PAF-induced hypotension; 8 hr.,41%
same,inhibition in vivo at 10 mg/kg,PAF-induced hypotension; 1 hr.,100%
same,inhibition in vivo at 10 mg/kg,PAF-induced hypotension; 2 hr.,97%
same,inhibition in vivo at 10 mg/kg,PAF-induced hypotension; 4 hr.,92%
same,inhibition in vivo at 10 mg/kg,PAF-induced hypotension; 6 hr.,84%
same,inhibition in vivo at 10 mg/kg,PAF-induced hypotension; 8 hr.,78%
same,inhibition in vivo at 30 mg/kg,PAF-induced hypotension; 1 hr.,100%
same,inhibition in vivo at 30 mg/kg,PAF-induced hypotension; 2 hr.,100%
same,inhibition in vivo at 30 mg/kg,PAF-induced hypotension; 4 hr.,97%
same,inhibition in vivo at 30 mg/kg,PAF-induced hypotension; 6 hr.,89%
same,inhibition in vivo at 30 mg/kg,PAF-induced hypotension; 8 hr.,86%
